In article PMC7544691, “Discovery of a novel EGFR ligand DPBA that degrades EGFR and suppresses EGFR-positive NSCLC growth” (Signal Transduction and Targeted Therapy, 2020):

Molecular target: T1, Epidermal growth factor receptor (EGFR) (Homo sapiens, UniProt P00533)
T1 construct: extracellular domain (ECD), recombinant human
Experiment: MST with recombinant EGFR ECD (also BIAcore SPR, Kd […]; CETSA in A549 and H1975)
Type: binding

T1 sequence (P00533 25-645 limits assumed): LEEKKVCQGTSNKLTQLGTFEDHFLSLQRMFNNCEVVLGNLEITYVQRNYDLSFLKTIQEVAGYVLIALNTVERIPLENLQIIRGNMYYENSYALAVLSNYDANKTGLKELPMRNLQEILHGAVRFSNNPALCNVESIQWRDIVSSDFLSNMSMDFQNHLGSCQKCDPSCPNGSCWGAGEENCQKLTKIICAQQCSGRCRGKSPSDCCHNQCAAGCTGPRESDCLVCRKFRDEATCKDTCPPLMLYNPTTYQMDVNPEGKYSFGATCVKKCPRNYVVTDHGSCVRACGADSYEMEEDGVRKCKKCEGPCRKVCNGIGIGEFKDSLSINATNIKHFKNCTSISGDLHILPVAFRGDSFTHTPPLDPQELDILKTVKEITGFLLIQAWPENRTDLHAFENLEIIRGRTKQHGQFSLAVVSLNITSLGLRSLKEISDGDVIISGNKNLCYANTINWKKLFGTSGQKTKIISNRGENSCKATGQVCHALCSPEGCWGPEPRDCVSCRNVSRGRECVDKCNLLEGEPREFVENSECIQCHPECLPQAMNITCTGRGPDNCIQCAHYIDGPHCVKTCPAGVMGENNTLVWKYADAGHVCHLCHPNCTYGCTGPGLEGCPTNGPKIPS

Question: For `C=C(C)[C@@H]1CC[C@]2(C(=O)N3CCC(N4CCCCC4)CC3)CC[C@]3(C)[C@H](CC[C@@H]4[C@@]5(C)CC[C@H](O)[C@@](C)(CO)[C@@H]5CC[C@]43C)[C@@H]12` [compound 187, DPBA], which Kd is on record?
Answer: Its Kd is 38.4 ± 1.75 µM.
